For test [1], the target named is T1, VLA-4 (α4β1 integrin) (Homo sapiens, UniProt P05556+P13612). In words: cell-based. The format is cell-based. The text has this:
Ramos (VLA-4)/VCAM-1 Cell-Based Screening Assay Protocol
Calcein-AM was purchased from Molecular Probes Inc.
VLA-4 (α4β1 integrin) antagonist activity, defined as ability to compete with cell-surface VLA-4 for binding to immobilized VCAM-1, was quantitated using a Ramos-VCAM-1 cell adhesion assay. Ramos cells bearing cell-surface VLA-4, were labeled with a fluorescent dye (Calcein-AM) and allowed to bind VCAM-1 in the presence or absence of test compounds.
Initially, this entailed coating 96 well plates (Nunc Maxisorp) with recombinant human VCAM-1 (100 ng in 100 μl PBS), sealing each plate and allowing the plates to stand at 4° C. for Å 18 hr. The VCAM-coated plates were subsequently washed twice with 0.05% Tween-20 in PBS, and then blocked for 1 hr (room temperature) with 200 μl of Blocking Buffer (1% BSA/0.02% thimerosal) to reduce non-specific binding. Following the incubation with Blocking Buffer, plates were inverted, blotted and the remaining buffer aspirated. Each plate was then washed with 300 μl PBS, inverted and the remaining PBS aspirated.
Test compounds were dissolved in 100% DMSO and then diluted 1:25 in VCAM Cell Adhesion Assay Buffer (4 mM CaCl2, 4 mM MgCl2 in 50 mM TRIS-HCl, pH 7.5) (final DMSO=4%). […] 100 μl/well of each dilution was added to the VCAM-coated plates, followed by 100 μl of Ramos cells (200,000 cells/well in 1% BSA/PBS). […] Plates were inverted to remove non-adherent cells, blotted and 300 μl/well PBS added. Plates were again inverted, blotted and the remaining buffer gently aspirated. 100 μl Lysis Buffer (0.1% SDS in 50 mM TRIS-HCl, pH 8.5) was added to each well and agitated for 2 min on a rotary shaking platform.

Test [2] concerns the target T1, VLA-4 (α4β1 integrin). Briefly: biochemical. The format is binding. The method, then:
VLA-4/VCAM-1 Screening Assay
VLA-4 antagonist activity, defined as ability to compete for binding to immobilized VCAM-1, was quantitated using a solid-phase, dual antibody ELISA. VLA-4 (α4β1 integrin) bound to VCAM-1 is detected by a complex of anti-integrin β1 antibody: HRP-conjugated anti-mouse IgG: chromogenic substrate (K-Blue). Initially, this entailed coating 96 well plates (Nunc Maxisorp) with recombinant human VCAM-1 (0.4 μg in 100 μl PBS), sealing each plate and then allowing the plates to stand at 4° C. for Å 18 hr. […] On the day of assay, all plates are washed twice with VCAM Assay Buffer (200 μl/well of 50 mM Tris-HCl. 100 mM NaCl, 1 mM MnCl2), 0.05% Tween 20; pH 7.4). Test compounds are dissolved in 100% DMSO and then diluted 1:20 in VCAM Assay Buffer supplemented with 1 mg/mL BSA (i.e., final DMSO=5%). […] 100 μl per well of each dilution is added to the VCAM-coated plates, followed by 10 μl of Ramos cell-derived VLA-4. These plates are sequentially mixed on a platform shaker for 1 min, incubated for 2 hr at 37° C., and then washed four times with 200 μl/well VCAM Assay Buffer. 100 μl of mouse anti-human integrin β1 antibody is added to each well (0.6 μg/mL in VCAM Assay Buffer+1 mg/mL BSA) and allowed to incubate for 1 hr at 37° C. At the conclusion of this incubation period, all plates are washed four times with VCAM Assay Buffer (200 μl/well). A corresponding second antibody, HRP-conjugated goat anti-mouse IgG (100 μl per well @1:800 dilution in VCAM Assay Buffer+1 mg/mL BSA), is then added to each well, followed by a 1 hr incubation at room temperature and concluded by three washes (200 μl/well) with VCAM Assay Buffer. Color development is initiated by addition of 100 μl K-Blue per well (15 min incubation, room temp) and terminated by addition of 100 μl Red Stop Buffer per well. […] Results are calculated as % inhibition of total binding (i.e. VLA-4+VCAM-1 in the absence of test compound).

For another test, the target named is VLA-4 (Homo sapiens, UniProt P05556+P13612). Briefly: IC50 of table 7, assay not given. As to conditions: table 7, Examples 79-84; assay not stated.
Chain of VLA-4 (P13612 34-1032): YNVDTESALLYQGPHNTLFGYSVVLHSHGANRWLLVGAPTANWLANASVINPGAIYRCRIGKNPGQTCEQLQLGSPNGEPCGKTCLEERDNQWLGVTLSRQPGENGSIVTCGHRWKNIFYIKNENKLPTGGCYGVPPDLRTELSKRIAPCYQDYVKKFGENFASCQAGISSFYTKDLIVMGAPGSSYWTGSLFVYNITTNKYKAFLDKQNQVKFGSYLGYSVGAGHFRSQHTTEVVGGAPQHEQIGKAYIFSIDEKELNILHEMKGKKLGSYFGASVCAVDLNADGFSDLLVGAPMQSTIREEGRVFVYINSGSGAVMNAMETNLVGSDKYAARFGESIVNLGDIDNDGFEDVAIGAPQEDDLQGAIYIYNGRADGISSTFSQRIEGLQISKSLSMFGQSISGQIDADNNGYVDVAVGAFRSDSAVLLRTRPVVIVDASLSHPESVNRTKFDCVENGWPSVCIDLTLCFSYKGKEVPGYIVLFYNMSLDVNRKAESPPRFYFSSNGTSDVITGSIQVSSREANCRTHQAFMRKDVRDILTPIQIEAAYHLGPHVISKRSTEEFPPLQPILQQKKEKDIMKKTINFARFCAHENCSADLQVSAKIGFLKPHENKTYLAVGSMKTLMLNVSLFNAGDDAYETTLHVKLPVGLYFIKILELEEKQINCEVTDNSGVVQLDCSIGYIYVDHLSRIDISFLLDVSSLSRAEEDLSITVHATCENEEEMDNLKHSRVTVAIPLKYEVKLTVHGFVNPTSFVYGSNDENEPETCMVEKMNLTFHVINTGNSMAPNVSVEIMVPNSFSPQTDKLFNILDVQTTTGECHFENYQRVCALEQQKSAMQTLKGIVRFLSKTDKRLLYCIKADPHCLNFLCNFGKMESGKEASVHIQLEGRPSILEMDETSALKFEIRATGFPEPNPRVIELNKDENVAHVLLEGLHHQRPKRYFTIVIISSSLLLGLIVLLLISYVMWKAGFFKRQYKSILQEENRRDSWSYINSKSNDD
Chain of VLA-4 (P05556 21-798): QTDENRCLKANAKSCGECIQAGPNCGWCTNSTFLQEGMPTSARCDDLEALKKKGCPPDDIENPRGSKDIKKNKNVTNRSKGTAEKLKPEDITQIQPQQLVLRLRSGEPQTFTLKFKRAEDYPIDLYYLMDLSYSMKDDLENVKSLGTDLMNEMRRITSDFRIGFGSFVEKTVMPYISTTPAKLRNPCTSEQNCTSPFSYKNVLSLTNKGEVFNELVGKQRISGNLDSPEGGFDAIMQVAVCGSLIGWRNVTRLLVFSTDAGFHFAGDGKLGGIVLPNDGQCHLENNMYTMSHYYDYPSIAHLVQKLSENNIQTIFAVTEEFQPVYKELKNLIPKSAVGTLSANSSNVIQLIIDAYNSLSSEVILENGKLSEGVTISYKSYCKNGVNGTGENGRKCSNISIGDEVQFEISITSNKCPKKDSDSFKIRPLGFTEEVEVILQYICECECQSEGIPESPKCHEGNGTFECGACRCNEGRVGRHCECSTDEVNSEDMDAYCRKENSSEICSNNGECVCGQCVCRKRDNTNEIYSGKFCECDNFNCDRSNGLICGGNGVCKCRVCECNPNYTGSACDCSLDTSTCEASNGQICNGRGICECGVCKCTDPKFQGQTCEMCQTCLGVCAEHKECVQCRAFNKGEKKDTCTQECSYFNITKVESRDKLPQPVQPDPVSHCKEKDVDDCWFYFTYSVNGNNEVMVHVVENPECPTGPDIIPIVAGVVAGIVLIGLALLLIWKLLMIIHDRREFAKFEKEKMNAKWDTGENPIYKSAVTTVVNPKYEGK
The mark [3] stands for this setting: table 14, Ramos cells binding to immobilized VCAM-1, read-out: Ramos IC50.
The mark [4] stands for this setting: table 13, competition for binding of Ramos cell-derived VLA-4 to immobilized VCAM-1, read-out: ELISA IC50.
Setting [5] is: table 9, Examples 97-102, assay not given, values equal ELISA table 13, read-out: IC50.
Setting [6] is: table 11, Examples 151-155, assay not given, values equal Ramos table 14, read-out: IC50.
Setting [7] is: table 12, Examples 156-160, assay not given, values equal Ramos table 14, read-out: IC50.

IC50 data for 33 compounds are collected here from patent US6229011A, “N-aroylphenylalanine derivative VCAM-1 inhibitors” (Hoffman-La Roche Inc., priority 1998, dated 2001).

pIC50: −log10 of the molar value.

T1 sequence (P13612 34-1032): as the sequence (P13612 34-1032) above
T1 sequence (P05556 21-798): as the sequence (P05556 21-798) above

What is called pIC50 is the negative decadic logarithm of the IC50, by convention in mol/L. Take “4-[(2S,4R)-3-Acetyl-2-phenyl-4-(3-pyridinylmethyl)-5-oxo-1-imidazolinyl]-N- [(2-chloro-6-methylphenyl)carbonyl]-L-phenylalanine and 4-[(2R,4R)-3-acetyl-2-phenyl-4-(3-pyridinylmethyl)-5-oxo-1-imidazolinyl)-N-[(2-chloro-6-methylphenyl)carbonyl]-L-phenylalanine [Example 171]”: the pIC50 on VLA-4 (α4β1 integrin) [1] (setting [3]) is 7.87.

Consider `O=C(Nc1ccc(C[C@H](NC(=O)c2cccc3ccccc23)C(=O)O)cc1)c1c(Cl)cccc1Cl` [Example 15], for which the pIC50 on VLA-4 (α4β1 integrin) [2] (setting [4]) was 8.23; on VLA-4 (α4β1 integrin) [1] (setting [3]), 8.59.

For `O=C(Nc1ccc(C[C@H](NC(=O)c2c(F)cccc2C(F)(F)F)C(=O)O)cc1)c1c(Cl)cccc1Cl` [Example 16], the pIC50 at VLA-4 (α4β1 integrin) [2] (setting [4]) was 9.36.

As to `CC(C)(C)c1ccccc1C(=O)N[C@@H](Cc1ccc(NC(=O)c2c(Cl)cccc2Cl)cc1)C(=O)O` [Example 17], on VLA-4 (α4β1 integrin) [2] (setting [4]), the pIC50 was 8.73.

Regarding `COc1ccc(C(=O)N[C@@H](Cc2ccc(NC(=O)c3c(Cl)cccc3Cl)cc2)C(=O)O)c(Cl)c1` [Example 19], the negative logarithm of the IC50 (pIC50) at VLA-4 (α4β1 integrin) [2] (setting [4]) was 8.73.

For `O=C(N[C@@H](Cc1ccc(NC(=O)c2c(Cl)cccc2Cl)cc1)C(=O)O)c1cccc(Cl)c1Cl` [Example 20], the pIC50 at VLA-4 (α4β1 integrin) [1] (setting [3]) was 8.79.

Consider `Cc1cccc(C(=O)N[C@@H](Cc2ccc(NC(=O)c3c(Cl)cccc3Cl)cc2)C(=O)O)c1Cl` [Example 21], for which the pIC50 on VLA-4 (α4β1 integrin) [1] (setting [3]) was 8.90.

On to `O=C(N[C@@H](Cc1ccc(NC(=O)c2c(Cl)cccc2Cl)cc1)C(=O)O)c1ccc(Br)cc1Cl` [Example 22], for which, on VLA-4 (α4β1 integrin) [1] (setting [3]), the negative-log IC50 (pIC50) was 8.88.

With `Cc1ccc(Cl)c(C(=O)N[C@@H](Cc2ccc(NC(=O)c3c(Cl)cccc3Cl)cc2)C(=O)O)c1` [Example 23], the results for the pIC50 at VLA-4 (α4β1 integrin) [2] (setting [4]) and on VLA-4 (α4β1 integrin) [1] (setting [3]) were 9.32 and 6.50, respectively.

On to `COc1ccc(Br)c(C(=O)N[C@@H](Cc2ccc(NC(=O)c3c(Cl)cccc3Cl)cc2)C(=O)O)c1` [Example 24], for which, at VLA-4 (α4β1 integrin) [1] (setting [3]), the pIC50 is 7.70.

As for `CSc1ccccc1C(=O)N[C@@H](Cc1ccc(NC(=O)c2c(Cl)cccc2Cl)cc1)C(=O)O` [Example 25], the negative-log IC50 (pIC50) on VLA-4 (α4β1 integrin) [2] (setting [4]) is 9.38; on VLA-4 (α4β1 integrin) [1] (setting [3]) it was 6.99.

For `O=C(N[C@@H](Cc1ccc(NC(=O)c2c(Cl)cccc2Cl)cc1)C(=O)O)c1ccccc1Cc1ccccc1` [Example 31, 4-[[(2,6-dichlorophenyl)carbonyl]amino]-N-[[(2-phenylmethyl)phenyl]carbonyl]-L-phenylalanine], the pIC50 on VLA-4 (α4β1 integrin) [2] (setting [4]) was 9.29.

Compound `Cc1cccc(Cl)c1C(=O)N[C@@H](Cc1ccc(N2C(=O)[C@H](C)N(C)C2=O)cc1)C(=O)O` [Example 79] showed a pIC50 on VLA-4 of 7.28.

`Cc1cccc(Cl)c1C(=O)N[C@@H](Cc1ccc(N2C(=O)[C@H](C(C)C)N(C)C2=O)cc1)C(=O)O` [Example 80]: the pIC50 against VLA-4 is 7.62.

For the compound `Cc1cccc(Cl)c1C(=O)N[C@@H](Cc1ccc(N2C(=O)[C@@H](CC(C)C)N(C)C2=O)cc1)C(=O)O` [Example 82], the pIC50 against VLA-4 is 7.25.

`Cc1cccc(Cl)c1C(=O)NC(Cc1ccc(N2C(=O)C3Cc4ccccc4CN3C2=O)cc1)C(=O)O` (stereo not shown) [Example 83] showed a pIC50 against VLA-4 of 7.14.

With `Cc1cccc(Cl)c1C(=O)N[C@@H](Cc1ccc(N2C(=O)[C@H](Cc3ccccc3)N(C)C2=O)cc1)C(=O)O` [Example 84], on VLA-4, the pIC50 is 7.14.

Take `CCc1cccc(C)c1C(=O)N[C@@H](Cc1ccc(NC(=O)c2c(Cl)cccc2Cl)cc1)C(=O)O` [Example 92]: the negative logarithm of the IC50 (pIC50) at VLA-4 (α4β1 integrin) [2] (setting [4]) was 9.38; on VLA-4 (α4β1 integrin) [1] (table 8, Examples 90-95, read-out: IC50 Ramos) it was 8.00; on VLA-4 (α4β1 integrin) [1] (setting [3]), 6.59.

`CC(=O)N1[C@H](CC(C)C)C(=O)N(c2ccc(C[C@H](NC(=O)c3c(C)cccc3Cl)C(=O)O)cc2)[C@H]1c1ccc(O)cc1` [Example 97]: on VLA-4 (α4β1 integrin) [2] (setting [5]), the pIC50 was 9.36.

On to `CC(=O)N1[C@H](CC(C)C)C(=O)N(c2ccc(C[C@H](NC(=O)c3c(C)cccc3Cl)C(=O)O)cc2)[C@@H]1c1ccc(O)cc1` [Example 98], for which the negative logarithm of the IC50 (pIC50) at VLA-4 (α4β1 integrin) [2] (setting [5]) is 8.63.

For the compound `CC(=O)N1CN(c2ccc(C[C@H](NC(=O)c3c(C)cccc3Cl)C(=O)O)cc2)C(=O)[C@@H]1CC(C)C` [Example 101], at VLA-4 (α4β1 integrin) [2] (setting [5]), the pIC50 was 8.00.

Consider `CC(=O)N1[C@H](CC(C)C)C(=O)N(c2ccc(C[C@H](NC(=O)c3c(C)cccc3Cl)C(=O)O)cc2)[C@@H]1C(C)(C)C` [Example 102], for which, at VLA-4 (α4β1 integrin) [2] (setting [5]), the negative-log IC50 (pIC50) is 7.39.

Regarding `COc1ccc(Br)c(C(=O)N[C@@H](Cc2ccc(NC(=O)c3c(C)ccnc3C)cc2)C(=O)O)c1` [Example 108], the pIC50 on VLA-4 (α4β1 integrin) [2] (setting [4]) is 9.20; on VLA-4 (α4β1 integrin) [1] (setting [3]) it was 7.66.

Consider `Cc1cc(C[C@H](NC(=O)c2c(C)cccc2Cl)C(=O)O)ccc1NC(=O)CCc1cccc(O)c1` [Example 120], for which the negative logarithm of the IC50 (pIC50) is 8.35 at VLA-4 (α4β1 integrin) [2] (setting [4]) and 6.36 at VLA-4 (α4β1 integrin) [1] (setting [3]).

For `Cc1cc(C[C@H](NC(=O)c2c(C)cccc2Cl)C(=O)O)ccc1NC(=O)Cc1cccc(O)c1` [Example 121], the pIC50 at VLA-4 (α4β1 integrin) [2] (setting [4]) is 8.24; on VLA-4 (α4β1 integrin) [1] (setting [3]), 6.29.

As for `Cc1cc(C[C@H](NC(=O)c2c(C)cccc2Cl)C(=O)O)ccc1NC(=O)c1cccc([N+](=O)[O-])c1` [Example 122], the values for the pIC50 at VLA-4 (α4β1 integrin) [2] (setting [4]) and at VLA-4 (α4β1 integrin) [1] (setting [3]) were 9.17 and 6.37, respectively.

Regarding `Cc1cc(C[C@H](NC(=O)c2c(C)cccc2Cl)C(=O)O)ccc1NC(=O)c1c(Cl)cccc1Cl` [Example 123], the figures for the pIC50 on VLA-4 (α4β1 integrin) [2] (setting [4]) and at VLA-4 (α4β1 integrin) [1] (setting [3]) were 8.77 and 6.50, respectively.

In the case of `Cc1cccc(Cl)c1C(=O)N[C@@H](Cc1ccc(NC(=O)c2sc(C(C)C)nc2C)cc1)C(=O)O` [Example 152], the pIC50 at VLA-4 (α4β1 integrin) [1] (setting [6]) is 6.01.

`Cc1cccc(Cl)c1C(=O)N[C@@H](Cc1ccc(NC(=O)c2c(C)noc2C)cc1)C(=O)O` [Example 153]: at VLA-4 (α4β1 integrin) [1] (setting [6]), the pIC50 is 6.01.

Turning to `Cc1cccc(Cl)c1C(=O)N[C@@H](Cc1ccc(NC(=O)c2nn(-c3ccccc3)nc2C)cc1)C(=O)O` [Example 154], on VLA-4 (α4β1 integrin) [1] (setting [6]), the pIC50 was 5.61.

Take `Cc1cc2ncc(C(=O)Nc3ccc(C[C@H](NC(=O)c4c(C)cccc4Cl)C(=O)O)cc3)c(C)n2n1` [Example 155]: the pIC50 at VLA-4 (α4β1 integrin) [1] (setting [6]) was 6.19.

Turning to `Cc1noc(C)c1C(=O)N[C@@H](Cc1ccc(NC(=O)c2c(Cl)cccc2Cl)cc1)C(=O)O` [Example 158], at VLA-4 (α4β1 integrin) [1] (setting [7]), the negative-log IC50 (pIC50) was 6.02.

As for `Cc1nn(-c2ccccc2)nc1C(=O)N[C@@H](Cc1ccc(NC(=O)c2c(Cl)cccc2Cl)cc1)C(=O)O` [Example 159], the pIC50 on VLA-4 (α4β1 integrin) [1] (setting [7]) is 6.01.
